According to patent publication US20190209568A1, “METHOD OF PREVENTING OR TREATING HEARING LOSS” (SUPPORT-VENTURE GMBH, priority 2016, published 2019):

Test system: auditory hair cells of organ of Corti (OC) explants
Experiment: Protection of auditory hair cells from gentamicin-induced loss in organ of Corti explant culture (hair cell counting, basal turn)
Format: cell-based, C57bl/6j mice
Settings: for hair cells lost / protection from loss of hair cells / loss of hair cells: 24 hours; for protection against gentamicin-induced loss of hair cells (in words): Example 1: 5 μM pioglitazone, 30 μM pamapimod, or both, with gentamicin, 24 hr in culture; for loss of hair cells: p5 mouse OC explants, basal turn
Procedure: All animal procedures were carried out according to protocols approved by the Kantonales Veterinäramt, Basel, Switzerland. Postnatal day 5 (p5) C57bl/6j were used for the studies. Studies were performed in vitro, using organ of Corti (OC) explants from p5 animals. Animals were sacrificed and the cochleae carefully dissected to separate the organ of Corti from the spiral ganglion, stria vascularis and Reissner's membrane [Sobkowicz H M, Loftus J M, Slapnick S M. Acta Otolaryngol Suppl. 1993; 502:3-36].
OCs were harvested and then placed in culture medium [Dulbecco's Modified Eagle Medium supplemented with 10% FCS, 25 mM HEPES and 30 U/ml penicillin (Invitrogen, Carlsbad, 20 CA, USA)] and incubated for 24 hours at 37° C. in an atmosphere of 95% O2/5% CO2. After that period, the culture medium was replaced with fresh medium containing no compound or 50 μM gentamicin alone or 50 μM gentamicin with either 5 μM pioglitazone, 30 μM pamapimod, or 5 μM pioglitazone+30 μM pamapimod, and incubated for a further 24 hours at 37° C. Ten OC explants were used for each treatment condition.
After incubation with compounds, the OCs were fixed in 4% paraformaldehyde, washed and then stained with a fluorescein (FITC)-conjugated phalloidin to detect inner and outer hair cells. After staining, the OCs were visualized and photographed using a fluorescence microscope (Olympus FSX100). Auditory hair cells were quantified for the basal turn of each organ of Corti in 3 fields corresponding to 80 hair cells each. The average values for the three fields were then averaged for the 10 OCs used for each condition. Significant differences between treatment groups in numbers of hair cells were determined using analysis of variance (ANOVA) followed by the least significant difference (LSD) post-hoc test (Stat View 5.0). Differences associated with P values of less than 0.05 were considered to be statistically significant. All data are presented as mean±SD.
OCs were harvested and then placed in culture medium [Dulbecco's Modified Eagle Medium supplemented with 10% FCS, 25 mM HEPES and 30 U/ml penicillin (Invitrogen, Carlsbad, 20 CA, USA)] and incubated for 24 hours at 37° C. in an atmosphere of 95% O2/5% CO2. After that period, the culture medium was replaced with fresh medium containing no compound or 100 µM gentamicin alone or 100 μM gentamicin with either 1 μM pioglitazone, 1 μM pamapimod, or 1 μM pioglitazone+1 μM pamapimod, and incubated for a further 24 hours at 37° C. The gentamicin concentration of 100 μM was determined as that concentration that leads to 50% loss of hair cells. Batch to batch variation in the activity of gentamicin requires that the concentration used for specific experiments leading to 50% hair cell loss be predefined in pilot experiments for each batch. Ten OC explants were used for each treatment condition.

Compound: Cn1c(=O)c(Oc2ccc(F)cc2F)cc2cnc(NC(CCO)CCO)nc21 [pamapimod, 6-(2,4-Difluorophenoxy)-2-[3-hydroxy-1-(2-hydroxyethyl)-propylamino]-8-methyl-8H-pyrido[2,3-d]pyrimidin-7-one]
- hair cells lost (Example 1, FIG. 1: 30 μM pamapimod (micronized, Dv50=3 μm) with 50 μM gentamicin): approximately 20%
- protection against gentamicin-induced loss of hair cells (in words): partially prevented the loss of hair cells
- protection from loss of hair cells (Example 2, FIG. 2: 1 μM pamapimod with 100 μM gentamicin): approximately 30%

Compound: CCc1ccc(CCOc2ccc(CC3SC(=O)NC3=O)cc2)nc1 (centres unmarked) [pioglitazone]
- hair cells lost (Example 1, FIG. 1: 5 μM pioglitazone (micronized, Dv50=4 μm) with 50 μM gentamicin): approximately 20%
- protection against gentamicin-induced loss of hair cells (in words): partially prevented the loss of hair cells
- protection from loss of hair cells (Example 2, FIG. 2: 1 μM pioglitazone with 100 μM gentamicin): approximately 40%

Compound: gentamicin
- loss of hair cells (Example 1, FIG. 1: 50 μM gentamicin alone): approximately 50%
- loss of hair cells (Example 2, FIG. 2: 100 μM gentamicin alone): approximately 50%
